One series concerns human CYP-3A4 enzyme. The series is described as follows: P450 CYP-3A4 induction. It counts as in vitro ADME. As to conditions: test compound 10 μM vs Rifampicin 10 μM (defined as 100%). The procedure: This assay measured the in vitro induction of the human CYP-3A4 enzyme in the presence of 0.37, 1.11, 3.33, 10 and 30 μM test compound in an automated formate. The results are expressed as the relative percent induction measured for test compound at the 10 μM concentration compared to the known inducer standard Rifampicin at 10 μM (defined as 100%). (See Durocher, et. al., Anal. Biochem. 2000, 284, 316 for details of the assay).

A further series concerns the target CYP3A4 (Homo sapiens, UniProt P08684).
For series [1], the target named is T1, Human Leukocyte Elastase (HLE) (Homo sapiens, UniProt P08246).
T1 construct: The PMN lysates were prepared by isolating human neutrophils from whole blood; from tissue; host or cells: human neutrophils (PMN) isolated from whole blood, lysed by sonication in PBS
T1 sequence (P08246 30-267): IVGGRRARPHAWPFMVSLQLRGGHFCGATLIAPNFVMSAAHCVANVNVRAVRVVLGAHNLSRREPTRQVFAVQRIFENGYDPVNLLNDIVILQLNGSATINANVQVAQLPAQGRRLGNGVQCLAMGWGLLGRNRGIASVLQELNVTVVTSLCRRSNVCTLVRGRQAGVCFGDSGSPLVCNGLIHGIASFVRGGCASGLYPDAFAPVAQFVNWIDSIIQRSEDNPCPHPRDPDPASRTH
The series is described as follows: HLE time-dependent inactivation assay, purified elastase. It counts as biochemical. As to conditions: purified elastase 3 nM; inhibitor 26.5 nM; substrate 1 mM. How it is done: As exemplified in Table 1, the Examples 1-6 of this application were determined to be potent, mechanism-based inactivators of Human Leukocyte Elastase (HLE) in two different in vitro time-dependent incubation assays. The two assays are described at the end of this Biological Data Section in Note 1. See the literature references in Note 2 for a discussion of the mechanism for this type of beta-lactam inactivation of HLE. Two sources of enzyme were used; either purified elastase or crude extracts of human polymorphonuclear leukocytes (PMN) containing elastase activity. […] For the compound of Example 1, the results were 638,000 M^−1 sec^−1 (average of n=3) and 809,000 M^−1 sec^−1 (n=4), respectively, and for Example 3, 804,000 M^−1 sec^−1 (average of n=4) and 952,000 M^−1 sec^−1 (n=5). […] Note that in this assay, head-to-head comparisons are particularly valuable.
Note 1: Enzyme Assays for the Inhibition of Human Polymorphonuclear Leukocyte Elastase Via Hydrolysis of N-Methyoxysuccinyl-alanyl-alanyl-prolylalanine-p-nitroanilide Reagent.
Prepare substrate by first dissolving in DMSO to 30 mg/ml (50 mM). Further dilute the substrate to 10 mM and add 25 μl to a final volume of 250 μl for a final concentration of 1 mM in the assay.
Prepare the enzyme in TES Buffer (0.045M TES (N-tris[hydroxymethyl]methyl-2-mino-ethanesulfonic acid), 0.45 M NaCl, pH 7.5.). Two sources of enzyme were used; either crude extracts of human polymorphonuclear leukocytes (PMN) containing elastase activity or purified elastase. The PMN lysates were prepared by isolating human neutrophils from whole blood after dextran sedimentation, ficoll density separation and red blood cell lysis. The neutrophils were lysed in PBS with sonciation and the concentration of active enzyme was determined by utilizing a standard curve of purified enzyme. For the purified elastase, the enzyme was resuspended at 10 mg/ml (˜340 μM) in 0.02M NaOAc, 50% glycerol. For both the PMN lysate and purified enzyme, a further dilution of enzyme was made to 30 nM and 25 μl was added to a final volume of 250 μl. The final concentration of enzyme in the assay was 3 nM.
The inhibitors to be tested were dissolved in DMSO at 10 mM. Directly before use, the inhibitors were further diluted into TES Buffer to 265 nM and […] was added to a final volume of 250 μl. The final concentration of inhibitor in the assay was 26.5 nM.
In a 96-well plate (flat bottom, polystyrene) 175 μl TES Buffer, 25 μl substrate, 25 μl inhibitor and 25 μl enzyme were added. After thoroughly mixing, the plate was then read in a spectrophotometer at 410 nm for 30 minutes counting every 10 seconds. Results were expressed as Kinact/Ki which is the second order rate constant in per mole per second for inactivation of the enzyme.

Series [2] in a line: Human liver microsome stability (Assays #1-#4). It counts as in vitro ADME. The settings on record: substrate 1 μM, 37° C.; for % Left Assay 3 @ 0 min / % Left Assay 3 @ 5 min / % Left Assay 3 @ 10 min / % Left Assay 3 @ 15 min / % Left Assay 3 @ 30 min / % Left Assay 3 @ 60 min / % Left @ 30 min / half-life at 1 μM: protein 0.1 mg/mL; for % Left (+NADPH) @ 0 min / % Left (+NADPH) @ 5 min / % Left (+NADPH) @ 10 min / % Left (+NADPH) @ 15 min / % Left (+NADPH) @ 30 min / % Left (+NADPH) @ 60 min / % Left (−NADPH) @ 0 min / % Left (−NADPH) @ 60 min: Assay #4, protein 1.0 mg/mL; for % Left (−NADPH) @ 0 min / % Left (−NADPH) @ 60 min: −NADPH control; for % Left @ 30 min / half-life at 1 μM: Assay #1; for half-life at 1 μM: human, liver microsomes. How it is done:
The results for Examples 1 and 3 were t112=87 and 32 minutes with 78% and 60% remaining after 30 minutes, respectively, compared to shorter half-lives and lesser amounts left for Examples 2 and 4-6 (see Note 6 for conditions).
Under similar in vitro human liver microsome preparation stability assay conditions at 37° C. for 30 or 60 minutes in a separate head-to-head experiments (Assay #2 and #3) (see Note 6 for conditions) with Examples 1 and 3 and the comparator Compound #290 from U.S. Pat. No. 5,591,737, the amounts left after the 30 minute incubation (with […] microsome protein vs 0.1 mg/mL for Assay #3) were 67, 99 and 79% and for the 60 minute incubation were 94, 73 and 77%, respectively. Similarly, in a third repeat assay (Assay #4 with—NADPH controls) (see Note 6 for conditions), 90 and 72% were remaining for Example 1 and the comparator compound, respectively. […]
Note 6: Human Liver Microsome Assay # 1-3 conditions. • Assay experiment #1: Substrate concentration=1 μM; Protein concentration=0.1 mg/mL; incubation time=30 minutes at 37° C. • Assay experiment #2: Substrate concentration=1 μM; Protein concentration 0.1 mg/mL; incubation time=30 minutes at 37° C. • Assay experiment #3: Substrate concentration=1 μM; Protein concentration=0.1 mg/mL; incubation time=60 minutes at 37° C. • Assay experiment #4: Substrate concentration=1 μM; Protein concentration=1.0 mg/mL; incubation time=60 minutes at 37° C.
For orientation: Microsomes from liver hold many membrane-bound enzymes, among them those of drug oxidation.

Where “and” joins values, the source holds several entries; their conditions need not be identical. Identical values can stand only once.

CYP3A4, sequence (P08684 whole entry): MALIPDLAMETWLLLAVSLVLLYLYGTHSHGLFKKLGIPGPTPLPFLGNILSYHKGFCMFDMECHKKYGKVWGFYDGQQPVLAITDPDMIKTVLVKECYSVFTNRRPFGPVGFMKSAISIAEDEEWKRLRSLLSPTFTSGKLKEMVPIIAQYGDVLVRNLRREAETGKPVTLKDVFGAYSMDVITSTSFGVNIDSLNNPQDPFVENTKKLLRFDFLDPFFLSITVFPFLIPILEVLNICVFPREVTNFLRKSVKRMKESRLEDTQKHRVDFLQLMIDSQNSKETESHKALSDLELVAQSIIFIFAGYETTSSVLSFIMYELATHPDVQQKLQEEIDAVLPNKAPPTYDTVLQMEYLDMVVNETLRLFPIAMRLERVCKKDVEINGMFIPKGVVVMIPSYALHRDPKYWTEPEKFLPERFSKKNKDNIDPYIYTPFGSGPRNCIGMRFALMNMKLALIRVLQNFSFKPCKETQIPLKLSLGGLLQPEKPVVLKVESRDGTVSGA
Procedure for CYP3A4: This assay measured the pre-incubation time-dependent inhibition of potential CYP-3A4 inhibitors in human liver microsomes using the CYP-3A4 mediated testosterone 6-beta-hydroxylation formate in the presence of test compounds in a semi-automated screening using LC-MS/MS detection. Test compounds are pre-incubated at 37° C. with human liver microsomes (2.5 mg/mL protein) and a NADPH regenerating system for 10, 20, 30 and 40 minutes prior to a ten-fold dilution with a 250 μM solution of testosterone. The diluted reaction is then incubated for 15 minutes at 37° C. The concentration of 6-β-hydroxytestosterone metabolite formed is measured by LC-MS/MS using validated analytical methods. The percent activity remaining is calculated by comparing the amount of marker metabolite formed in the presence of inhibitor compared to no inhibitor control samples at corresponding time points. No inhibitor control samples represent the maximum amount of 6-β-hydroxytestosterone formed under these assay conditions.

One may read the kinact/KI as the maximal inactivation rate divided by the concentration that gives half of it. With `CCC[C@@H](NC(=O)N1C(=O)C(CC)(CC)[C@@H]1Oc1ccc(C(=O)N(C)CCN(C)C)cc1)c1ccc(OC)cc1` [Compound #290, reference compound], the “CYP-3A4 Induction % of Rifampicin response @ 10 μM” value (“CYP-3A4 Induction %” for short) in the series with human CYP-3A4 enzyme is 6%. In addition, on CYP3A4, the “P450 CYP-3A4 Time-Dependent Inhibition rate @ 10 μM (#1)” value turned out to be 0.017 min⁻¹, the “P450 CYP-3A4 Time-Dependent Inhibition rate @ 10 μM (#2)” value stood at 0.008 min⁻¹ and the “P450 CYP-3A4 Time-Dependent Inhibition rate @ 50 μM” value was determined as 0.018 min⁻¹. Besides, the kinact/KI in series [1] is 523000 M⁻¹ s⁻¹. For the same molecule, in series [2], the “% Left Assay 2 @ 0 min” value turned out to be 100%, the “% Left Assay 2 @ 2.5 min” value is recorded as 99%, the “% Left Assay 2 @ 5 min” value was 95% and the “% Left Assay 2 @ 10 min” value worked out at 89%. Besides, in series [2], the “% Left Assay 2 @ 15 min” value came to 82%; the “% Left Assay 2 @ 30 min” value is 79% and 79 +/− 6%; the “% Left Assay 3 @ 0 min” value was 100%; the “% Left Assay 3 @ 5 min” value worked out at 90%. In addition, in series [2], the “% Left Assay 3 @ 10 min” value was 88%; the “% Left Assay 3 @ 15 min” value worked out at 85%; the “% Left Assay 3 @ 30 min” value amounted to 83%; the “% Left Assay 3 @ 60 min” value was 77% and 77 +/− 4%. In series [2], the “% Left (+NADPH) @ 0 min” value is 100%, the “% Left (+NADPH) @ 5 min” value was found to be 92%, the “% Left (+NADPH) @ 10 min” value amounted to 89% and the “% Left (+NADPH) @ 15 min” value is recorded as 84%. In series [2], the “% Left (+NADPH) @ 30 min” value is 78%; the “% Left (+NADPH) @ 60 min” value is 72% and 72 +/− 0%; the “% Left (−NADPH) @ 0 min” value is given as 89 +/− 5%; the “% Left (−NADPH) @ 60 min” value was 83 +/− 1%.

The term half-life denotes the time in which the quantity being followed falls by half. Lower therefore signals rapid decline. Regarding `CCC[C@@H](NC(=O)N1C(=O)C(CC)(CC)[C@@H]1Oc1ccc(C(=O)N(CC)CCN(C)C)cc1)c1ccc(OC(F)(F)F)cc1` [Example 1, 2-(S)-[4-(((2-(Dimethylamino)ethyl)ethylamino)carbonyl)phenoxy]-3,3-diethyl-N-[1-(R)-(4-(trifluoromethoxy)phenyl)butyl]-4-oxo-1-azetidinecarboxamide], in the series with human CYP-3A4 enzyme, the “CYP-3A4 Induction %” value was determined as 5%. Besides, at CYP3A4, the “P450 CYP-3A4 Time-Dependent Inhibition rate @ 10 μM (#1)” value amounted to 0.005 min⁻¹, the “P450 CYP-3A4 Time-Dependent Inhibition rate @ 10 μM (#2)” value is 0.008 min⁻¹ and the “P450 CYP-3A4 Time-Dependent Inhibition rate @ 50 μM” value is 0.018 min⁻¹. Besides, the kinact/KI in series [1] came to 638000 M⁻¹ s⁻¹. In series [2], the “% Left @ 30 min” value came out at 78%, the “% Left Assay 2 @ 0 min” value is given as 100%, the “% Left Assay 2 @ 2.5 min” value stood at 78% and the “% Left Assay 2 @ 5 min” value came out at 78%. In addition, in series [2], the “% Left Assay 2 @ 10 min” value worked out at 73%; the “% Left Assay 2 @ 15 min” value was 70%; the “% Left Assay 2 @ 30 min” value is 67% and 67 +/− 2%; the “% Left Assay 3 @ 0 min” value worked out at 100%. In series [2], the “% Left Assay 3 @ 5 min” value is 101%, the “% Left Assay 3 @ 10 min” value was 79%, the “% Left Assay 3 @ 15 min” value is recorded as 90% and the “% Left Assay 3 @ 30 min” value was 100%. For the same molecule, in series [2], the “% Left Assay 3 @ 60 min” value is 94% and 94 +/− 10%; the “% Left (+NADPH) @ 0 min” value is recorded as 100%; the “% Left (+NADPH) @ 5 min” value is recorded as 104%; the “% Left (+NADPH) @ 10 min” value turned out to be 99%. In addition, in series [2], the “% Left (+NADPH) @ 15 min” value was 96%; the “% Left (+NADPH) @ 30 min” value worked out at 91%; the “% Left (+NADPH) @ 60 min” value is 90% and 90 +/− 4%; the “% Left (−NADPH) @ 0 min” value was 87 +/− 21%. Besides, in series [2], the “% Left (−NADPH) @ 60 min” value is listed as 99 +/− 2% and the half-life at 1 μM stood at 87 min.

In the case of `CCC[C@@H](NC(=O)N1C(=O)C(CC)(CC)[C@@H]1Oc1ccc(C(=O)N(CC)CCN(C)C)cc1)c1ccc(C(F)(F)F)cc1` [Example 3, 2-(S)-[4-(((2-(Dimethylamino)ethyl)ethylamino)carbonyl)phenoxy]-3,3-diethyl-N-[1-(R)-(4-(trifluoromethyl)phenyl)butyl]-4-oxo-1-azetidinecarboxamide], the “CYP-3A4 Induction %” value with human CYP-3A4 enzyme is 0%. Besides, the “P450 CYP-3A4 Time-Dependent Inhibition rate @ 10 μM (#1)” value at CYP3A4 turned out to be 0.014 min⁻¹. Besides, the kinact/KI in series [1] was found to be 804000 M⁻¹ s⁻¹. Also, in series [2], the “% Left @ 30 min” value amounted to 60%, the “% Left Assay 2 @ 0 min” value was determined as 100%, the “% Left Assay 2 @ 2.5 min” value was 107% and the “% Left Assay 2 @ 5 min” value is 85%. Further, in series [2], the “% Left Assay 2 @ 10 min” value is 82%; the “% Left Assay 2 @ 15 min” value came to 82%; the “% Left Assay 2 @ 30 min” value was 99% and 79 +/− 7%; the “% Left Assay 3 @ 0 min” value is listed as 100%. In addition, in series [2], the “% Left Assay 3 @ 5 min” value amounted to 86%, the “% Left Assay 3 @ 10 min” value is recorded as 81%, the “% Left Assay 3 @ 15 min” value amounted to 75% and the “% Left Assay 3 @ 30 min” value worked out at 75%. In series [2], the “% Left Assay 3 @ 60 min” value was 73% and 73 +/− 0%; the half-life at 1 μM stood at 32 min.

The values are drawn from US20100216761A1, “NOVEL AZETIDINONES USEFUL AS INHIBITORS OF ELASTASE” (priority 2007, published 2010).
